Data on two compounds can be found in article PMC6152192, “Novel Methylselenoesters as Antiproliferative Agents” (Molecules : A Journal of Synthetic Chemistry and Natural …, 2017).

Molecules are shown by their SMILES. Read-outs that look alike come from different tables or passages of the source.

Data set [1] has as its system PC-3 (prostate adenocarcinoma). Description: MTT viability assay, PC-3. The data set is classed as cell-based. The method, then:
(§1) The novel compounds were tested against a panel of different cancer lines: PC-3 (prostate adenocarcinoma), MCF7 (mammary adenocarcinoma), HTB-54 (lung carcinoma), K-562 (chronic myelogenous leukemia) and HT-29 (colorectal adenocarcinoma). Two non-malignant cell lines, BEAS-2B (bronchial epithelial) and 184B5 (mammary epithelial) were also included to evaluate the toxicity of the novel synthesized compounds. The antiproliferative activity was measured with the [3-(4,5-dimethylthiazol-2-yl)-2,5-diphenyltetrazolium bromide] (MTT) assay after 72 h treatment. Six concentrations ranging from 0.1 to 100 μM were tested. MSA is largely known as the main CH3SeH putative precursor and was therefore included as positive control. The following parameters were calculated: GI50 (concentration which reduces the growth by 50%), TGI (concentration completely inhibiting growth) and LC50 (concentration that kills 50% of the cells).
(§2) All cells were purchased from the American Type Culture Collection (ATCC, Barcelona, Spain). HT-29 (colorectal adenocarcinoma), HTB-54 (grade III lung carcinoma), MCF7 (mammary adenocarcinoma), PC-3 (grade IV prostate adenocarcinoma) and K-562 (chronic myelogenous leukemia) were cultured in RPMI (Gibco, Madrid, Spain), 10% FBS (Gibco), 100 units/mL penicillin and 100 μg/mL streptomycin (Gibco). BEAS-2B cell line (normal epithelial lung) was cultured in DMEM (Gibco), 10% FBS, 100 units/mL penicillin and 100 μg/mL streptomycin. 184B5 (normal mammary gland) cell line was cultured in DMEM:F12 supplemented with 5% FBS, 1 × ITS (Lonza, Barcelona, Spain), 100 nM hydrocortisone (Sigma-Aldrich), 2 mM sodium pyruvate (Lonza), 20 ng/mL EGF (Sigma-Aldrich), 0.3 nM trans-retinoic acid (Sigma-Aldrich), 100 units/mL penicillin and 100 µg/mL streptomycin. Cells were cultured at 37 °C under 5% CO2.
(§3) Cell viability after treatment was assessed by the well-known 3-(4,5-dimethyl-thiazol-2-yl)-2,5-diphenyltetrazolium bromide (MTT, Sigma-Aldrich) assay. Briefly, 10,000 cells were seeded in 96-well plates, treated and incubated for 72 h. Dilutions of the compounds in cell medium were freshly prepared from a 0.01 M stock in DMSO. After treatment, 50 μL of MTT solution in PBS (2 mg/mL) were added and cells were incubated for 4 h. Medium was removed and 150 μL of DMSO was added to dissolve the formed formazan crystals. Absorbance was read at 550 nm in a microplate absorbance reader (Sunrise, Tecan, Männedorf, Switzerland).

Data set [2] deals with HTB-54 (lung carcinoma). Description: MTT viability assay, HTB-54. Type of data set: cell-based. The note with it: HTB-54, 72 h. The method, then: as §1, §2, §3
Data set [3] is described as follows: Methylselenol (CH3SeH) release by hydrolysis, quantified with DTNB (Ellman's reagent). The data set is classed as physicochemical. The note with it: 100 μM compound, 100 μM DTNB, phosphate buffer pH 8, 24 h. From the text: The new compounds were designed as CH3SeH precursors. The chemical features of the selenoester functional group facilitate a nucleophilic attack (i.e., with water) which would deliver the CH3SeH residue. In order to verify if CH3SeH could be released from the molecules by hydrolysis and if the rate differed among the compounds, the reaction of CH3SeH with 5,5′-dithiobis(2-nitrobenzoic acid) (DTNB or Ellman’s reagent) in aqueous environment was monitored. Briefly, when the disulfide bridge of DTNB reacts with thiols or selenols, 2-nitro-5-thiobenzoate (TNB^2−) is released and the mixed disulfide or selenylsulfide is formed. Each released CH3SeH produces one yellow TNB^2− species, whose absorbance can be quantified at 412 nm (Figure 2A).
A stock solution of the compounds was prepared in anhydrous DMSO (10 mM). The compounds were placed in a 96-well plate in a final concentration of 100 μM. Reaction started after adding 200 μL of an aqueous 100 mM Na2HPO4 buffer (1 mM EDTA, pH = 8), containing 100 μM of DTNB from a freshly prepared 10 mM ethanolic stock, which were added just before starting the reaction. The DTNB concentration was quantified with a cysteine standard curve ([…]). Blanks for the compounds in the absence of DTNB were also included as well as a blank to measure the slow but spontaneous hydrolysis of DTNB, which was further subtracted from all the values. Absorbance was read at 412 nm in a FLUOstar Omega microplate reader (BMG LabTech, Ortenberg, Germany). Results represent means of triplicate values ± SD.
Figure 2 CH3SeH release rates are dependent on the chemical features of the molecule. Released CH3SeH was quantified through reaction with Ellman’s reagent (DTNB). (A) Proposed reaction between CH3SeH and DTNB; (B) Quantification of TNB^2− at different times. The compounds were tested at 100 μM in 200 μL of 100 mM phosphate buffer (1 mM EDTA, pH = 8). DTNB concentration was also 100 μM. Absorbance was followed at 412 nm over 72 h. A cysteine standard curve (7.5–150 μM) was used to calculate the concentration of TNB^2− over time. Compounds showing less than 15% hydrolysis at 72 h are not included, except for compound 5 as example. Error bars indicate SD of triplicates.

For data set [4], the system named is 184B5 (non-malignant mammary epithelium). Description: MTT viability assay, 184B5. The data set is classed as cell-based. The note with it: 184B5 non-malignant, 72 h, MTT. The method, then:
as §1, §2, §3

Data set [5] in a line: MTT viability assay, 184B5. Type of data set: cell-based. To be noted: human. As to the method: as §1, §2, §3
The subject of data set [6] is K-562 (chronic myelogenous leukemia). Description: MTT viability assay, K-562. The data set is classed as cell-based. As to the method: as §1, §2, §3
For data set [7], the system named is HT-29 (colorectal adenocarcinoma). Description: MTT viability assay, HT-29. The data set is classed as cell-based. The note with it: HT-29, 72 h. As to the method: as §1, §2, §3
Data set [8] has as its system MCF7 (mammary adenocarcinoma). Description: MTT viability assay, MCF7. The data set is classed as cell-based. The note with it: MCF7, 72 h. As to the method: as §1, §2, §3
For data set [9], the system named is BEAS-2B (non-malignant bronchial epithelial). Description: MTT viability assay, BEAS-2B. Type of data set: cell-based. To be noted: BEAS-2B non-malignant, 72 h, MTT. As to the method:
as §1, §2, §3

Data set [10] can be described thus: MTT viability assay, BEAS-2B. Type of data set: cell-based. The note with it: human. The method, then: as §1, §2, §3
Data set [11] relates to thioredoxin reductase (TrxR1). Description: Thioredoxin reductase activity assay (NADPH consumption). Type of data set: biochemical. The note with it: 100 nM TrxR1, 227 μM NADPH, TE buffer pH 8, 45 min. The method, then: The assay was performed as previously described, but in a final volume of 200 μL in a 96-well plate. Reaction started after addition of 133 μL of TE buffer (20 mM Tris, 2 mM EDTA, pH = 8), 0.227 mM NADPH (freshly prepared) to different concentrations of compounds solved in DMSO and TrxR1 (final concentration 100 nM). NADPH consumption was followed measuring absorbance decrease at 340 nm in a VersaMax microplate reader (Molecular Devices, Sunnyvale, CA, USA) over 45 min. A background sample with DMSO without the compounds was included and subtracted from the values.
(§4) Figure 7 Compounds 5 and 15 are substrates for thioredoxin reductase but not for the glutathione-glutaredoxin system. (A) NADPH consumption indicating reduction of compounds 5, 15 or MSA as control by thioredoxin reductase. The reaction mixture contained 100 nM TrxR1, 227 μM NADPH and the corresponding amount of compound in TE buffer (20 mM Tris, 2 mM EDTA pH = 8); (B) NADPH consumption indicating reduction of MSA by glutathione in the presence or absence of glutaredoxin. The reaction mixture contained the corresponding amount of compound, 0.1 M Tris, 2 mM EDTA pH = 8, 0.1 mg/mL BSA, 1 mM GSH, 200 μM NADPH, 0.008 OD/mL yeast GR and 1 μM hGrx1 when required. Only results for MSA are shown, as compounds 5 and 15 were not reduced.

Data set [12] concerns glutathione-glutaredoxin (GSH-Grx) system. Description: Glutaredoxin/glutathione assay (NADPH consumption). Type of data set: biochemical. To be noted: 1 mM GSH, 200 μM NADPH, yeast GR, 1 μM hGrx1 when required, 45 min. The method, then:
The assay was performed as previously described, with minor modifications and adapted for a 96-well plate. A mixture of 0.1 M Tris pH 8, 2 mM EDTA pH = 8, 0.1 mg/mL BSA, 1 mM GSH, 200 μM NADPH, and 0.008 OD/mL yeast GR was prepared (all reagents were purchased from Sigma-Aldrich). Reactions were performed with 1 μM hGrx1 (IMCO Corporation, Stockholm, Sweden) when corresponding and different concentrations of the compounds. A 100 μL mixture was added, and the final volume was adjusted to 110 μL per well. Consumption of NADPH was monitored at A340 on a VersaMax microplate reader (Molecular Devices) for 45 min.
as §4

Where [13] appears, read: MTT, read-out: LC50 (the source's name).
Where [14] appears, read: read-out: LC50 (the source's name).

Take `C[Se]C(=O)c1cnccn1` [Compound 3, Methyl pyrazinecarboselenoate]: the CC50 in data set [1] (72 h, read-out: LC50) was 60.5 ± 4.3 µM; in [2] (read-out: LC50), 71.1 ± 3.8 µM; in data set [6] (Homo sapiens, K562, 72 h, read-out: LC50), 87.9 ± 2 µM; in data set [7] (Homo sapiens, read-out: LC50), greater than 100 µM; in [8] (Homo sapiens, read-out: LC50), 40.1 ± 4.4 µM. In addition, the GI50 in [1] (PC-3, 72 h, MTT) turned out to be 5.4 ± 1.1 µM; in [2] (MTT), 6.2 ± 1.5 µM; in data set [4] (Homo sapiens), 3.1 ± 0.5 µM; in data set [6] (Homo sapiens, K562, K-562, 72 h, MTT), 30.2 ± 2.2 µM; in data set [7] (Homo sapiens, MTT) it was 4.7 ± 0.6 µM; in data set [8] (Homo sapiens, MTT) it was 3.5 ± 0.8 µM. The GI50 in data set [9] (Homo sapiens) worked out at 3.6 ± 0.6 µM. Moreover, the TGI amounted to 15.3 ± 1.7 µM in [1] (PC-3, 72 h, MTT); 21.1 ± 4.1 µM in data set [2] (MTT); 6.6 ± 0.9 µM in [4]; 59.1 ± 2.1 µM in [6] (K-562, 72 h, MTT); 9.1 ± 0.8 µM in [7] (MTT); 7.2 ± 1.0 µM in data set [8] (MTT). The compound also came in with a TGI in [9] of 6.1 ± 0.5 µM. Moreover, the “CH3SeH release at 24 h” value in data set [3] is on record as “completely released”. Also, the CC50 at 72 h is 17.6 ± 4.4 µM in [5] and 8.6 ± 0.5 µM in data set [10].

Turning to `C[Se](=O)O` [MSA, Methylseleninic acid, reference compound], the “reduction by TrxR1 (NADPH consumption)” value in data set [11] is recorded as “consistently reduced”. The GI50 was found to be 4.4 ± 1.1 µM in [1] (PC-3, 72 h, MTT); 3.5 ± 0.1 µM in [2] (MTT); 5.3 ± 1.2 µM in data set [4]; 1.5 ± 0.5 µM in data set [8] (MTT); 3.7 ± 0.7 µM in [9]. The TGI was determined as 8.5 ± 2.4 µM in data set [1] (PC-3, 72 h, MTT); 6.9 ± 0.2 µM in [2] (MTT); 9.2 ± 1.3 µM in data set [4]; 5.4 ± 0.5 µM in [8] (MTT); 6.2 ± 1.2 µM in data set [9]. For the same compound, the CC50 in [1] (PC-3, 72 h, MTT, read-out: LC50 (the source's name)) stood at 47.6 ± 4.6 µM; in data set [2] (setting [13]), 19.9 ± 1.2 µM; in data set [4] (setting [14]), 13.1 ± 1.3 µM; in [8] (setting [13]) it was 9.4 ± 1 µM; in data set [9] (setting [14]), 8.7 ± 1.8 µM. Besides, the “reduction by GSH in the presence or absence of glutaredoxin (NADPH consumption)” value in data set [12] was “consistently reduced”.
